Laboratory results as given in patent publication EP1033998B1, “SUPPRESSING BETA-AMYLOID-RELATED CHANGES IN ALZHEIMER'S DISEASE” (Neuralab, Ltd., priority 1997, dated 2005).

Tests used:
[1] = tested on: community-dwelling subjects with mild or moderate dementia; settings: cited from earlier work
spleen T-cells = test: Proliferation assay ([3H]thymidine incorporation) of spleen cells after feeding or nasal treatment and immunization; format: in vivo, SWISSXBDF1 mice; settings: fed (75 µg/feeding x 5) or nasally treated (25 µg x 3); immunized two days after last treatment with 100 µg peptide in 50 µg CFA; Figure 1A
Procedure: (§1) Female BALB/C (6-8 weeks of age); DBA/2; C3H/eb; C47b1/6; SWISSXBDF1 or SHL/J mice were used. The animals were maintained in a temperature- and light-controlled environment with free access to feed and water. Each experimental group contained no fewer than 5 mice.
(§2) Mice were immunized with 100 µg of [1-40]β-amyloid peptide ([1-40]Aβ) emulsified in 50 µg CFA (Difco Laboratories, Inc.). On day 10, popliteal lymph nodes and spleens were removed and for T-cell proliferation and cytokine production.

[2] = tested on: popliteal lymph node T-cells; test: Proliferation assay ([3H]thymidine incorporation) of popliteal lymph node cells after feeding or nasal treatment and immunization; format: in vivo, SWISSXBDF1 mice; settings: fed or nasally treated; ten days after foot pad immunization with 100 µg peptide in 50 µg CFA; Figure 1B
Procedure: as §1, §2

[3] = tested on: popliteal lymph node T-cells and spleen cells; test: Proliferation assay in mouse strains immunized but not fed the peptide; format: in vivo, SJL/J, DBA/1, C57BL/6, BALB/C and C3H/EB mice; settings: one in vitro stimulation, Figures 2A, 2B
Procedure: as §2
Figure 2A compares proliferation of popliteal lymph node T-cells from SJL/J, DBA/I, C57BL/6, BALB/C and C3H/EB mice immunized with [1-40]β-amyloid peptide. Figure 2B compares proliferation in spleen cells from SJL/J, DBA/1, C57BL/6, BALB/C and C3H/EB mice immunized with [1-40]β-amyloid peptide. […] It should be noted that T-cells for the experiment shown in this Example are stimulated with antigen only once in vitro prior to the proliferation assay. Additional stimulations would enlist response from the apparent non-responder strain C57BL/6 and (DBA/1). This experiment provides information about the responding ability of cells from various strains and was useful in designing the subsequent experiments described below. It is believed to be advantageous to select "good responders" (such as C3H/EB) but not "too high responders" (SJL/J was thus not chosen).

[4] = tested on: popliteal lymph node and spleen T-cells; test: Cytokine production assay (capture ELISA) after feeding or nasal administration and immunization; format: in vivo, C3H/EB mice; settings: then immunized
Procedure: C3H/eb mice were fed [1-40]Aβ 500 µg/feeding, 50 µg/feeding, or 5 µg/feeding every day for 5 days (200 µl/feeding). Nasal administration was given at 50 µg/application or 5 µg/application every day for 3 days (10 µl/application).
This experiment also served as a preliminary dose response experiment for this mouse strain.
Figure 5A illustrates the result in secretion of the Th1 immunostimulatory (proinflammatory) cytokine IL-2 in popliteal lymph nodes from C3H/EB mice at various feeding levels (5, 50 and 500 µg/feeding for 5 days) and when nasally administered (5 or 50 µg/application for 3 days) [1-40]β-amyloid peptide prior to immunization (2 days after the last feeding or nasal application) with 100 µg [1-40]β-amyloid peptide in 50 µg CFA. […] Based on the results for Fig. 5A, and Figs. 5B, 6A, 6B, and 7A, 7B, it was decided to use 25 µg nasally and 75 µg orally in subsequent experiments.

[5] = tested on: popliteal lymph node and spleen T-cells; test: Cytokine profiles (capture ELISA) after feeding or nasal administration and immunization of non-transgenic littermates; format: in vivo, SWISSXXB6D2F1 mice; settings: then immunized, ten days later
Procedure: Levels of IL-4, IL-2, IL-10, TGF-β and IFNγ in supernatants were determined by capture ELISA as described. […] Briefly, supernatants were added to microtiter (Maxisorp) plates, previously coated with rat anti-mouse IL-4, IL-2, IL-10, TGF-β or IFN-γ monoclonal antibodies (capture antibodies, Pharmingen; 1 µg/ml at 4°C over night) and blocked with BSA-diluent/blocking solution (KPL). Plates were washed, and standards and samples were added for another overnight incubation at 4°C. Bound cytokine was detected by the addition of ABTS (Kirkegaard & Perry). Wells were washed, and cytokine levels determined using biotinylated rat anti-mouse IL-4, IL-2, IL-10, TGF-β or IFN-γ monoclonal antibodies (detecting antibodies, Pharmingen) and a peroxide visualization system (peroxidase-labeled streptavidin). IL-2 and IL-4 were analyzed after 24 hours of cell incubation with antigen, IL-10 and IFN-γ after 40 hours and TGF-β after 72 hours. Cytokine levels were calculated from a log-log plot of absorbance vs. concentration of recombinant cytokines (Pharmingen), and results are expressed in pg/mL (for IL-4, IL-2, IL-10, TGF-β and IFN-γ). Threshold sensitivities of ELISA assays were 5 pg/mL, 10 pg/mL and 2.5 ng/mL for IL-4, IL-2 and IFN-γ, respectively.
Feeding and Immunization: SWISSXXB6D2F1 mice were fed with [1-40]Aβ 75 µg/feeding x 5 or nasally administered with 25 µg/application x 3, and 2 days after the last treatment, were immunized with 100 µg [1-40]Aβ in 50 µg CFA. Ten days later, the popliteal lymph node and spleen T-cells were checked for cytokine production as described above.

PDAPP mice [6] = test: β-amyloid plaque load in brain sections (visual and computer assisted image analysis); format: in vivo
From the text: Transgenic PDAPP mice were acquired from Athena Neurosciences, Inc. (South San Francisco, CA). These mice express a human gene encoding a mutant form of β-amyloid precursor protein and progressively develop β-amyloid deposits in the hippocampus and cerebral cortex in a manner similar to that seen in Alzheimer's disease. The β-amyloid deposits in the transgenic mice become associated with activated microglial cells, reactive astrocytes and other features of the periplaque inflammatory response seen in Alzheimer's disease brains.
4 to 5 month old PDAPP mice were fed or nasally administered either [1-40]β-amyloid peptide or a control protein (myelin basic protein or ovalbumin in amounts of 50 or 500 µg per feeding). Administration was carried out three (nasal) or five times consecutively (oral) during an initial one week period, and then on a weekly basis until the animals were between 11 and 12 months old. The orally administered β-amyloid peptide was in a dosage of 10 or 100 µg, and the nasally administered β-amyloid was in a dosage of 5 or 25 µg. […]
Specificially, results are shown for both visual and computer assisted image analysis of β-amyloid plaque load for the 8 experimental groups of mice that were tested; values are shown for each mouse in the relevant group. […] The visual assessment of plaque load was scored according to the table shown at the bottom of Figure 9A.

PDAPP mice [7] = test: Immunoreactivity tests on brain sections (immunological markers and cytokines); format: in vivo; settings: mice treated mucosally; Figures 9A, 9B
Procedure: 4 to 5 month old PDAPP mice were fed or nasally administered either [1-40]β-amyloid peptide or a control protein (myelin basic protein or ovalbumin in amounts of 50 or 500 µg per feeding). Administration was carried out three (nasal) or five times consecutively (oral) during an initial one week period, and then on a weekly basis until the animals were between 11 and 12 months old. The orally administered β-amyloid peptide was in a dosage of 10 or 100 µg, and the nasally administered β-amyloid was in a dosage of 5 or 25 µg.
The feeding and nasal administration of β-amyloid peptide, or ovalbumin to PDAPP mice was conducted among the following mice groups: Group 0: Non treated; mice nos. 0.1-0.7 Group 1: fed [1-40]β-amyloid peptide 100µg/feeding; mice nos. 1.1-1.9 Group 2: fed [1-40]β-amyloid peptide 10µg/feeding; mice nos. 2.1-2.9 Group 3: nasal [1-40]β-amyloid peptide 25µg/treatment; mice nos. 3.1-3.9 Group 4: nasal [1-40]β-amyloid peptide 5µg/treatment; mice nos. 4.1-4.7 Group 5: fed ovalbumin 500µg/feeding; mice nos. 5.1-5.6 Group 6: nasal ovalbumin 50µg/treatment; mice nos. 6.1-6.6 Group 7: fed MBP 500µg/feeding; mice nos. 7.1-7.5 Group 8: nasal MBP 50µg/treatment; mice nos. 8.1-8.6
At the end of the treatment period, the mice were sacrificed and brains, popliteal lymph nodes and spleens removed. […]

β-amyloid = test: Immunoassay of mouse antisera for IgG subtypes against β-amyloid (Down syndrome brain sections as capture antigen); format: in vivo, PDAPP mice; settings: nasally treated with 25 µg; over controls; Figure 11
Procedure: In these experiments, the antisera were tested in an immunoassay for the presence of IgG subtypes against β-amyloid. In the immunoassay, Down syndrome brain sections, which contain large amounts of β-amyloid, were employed as "capture" antigen. IgG in the mice antisera were bound to the sections, and the presence of IgG subtypes in the bound antibodies distinguished by secondary (2°) antibodies specific for each subtype. […] These antibodies are associated with Th2 type cellular immune responses.

PLN [8] = settings: mucosally administered, immunized 10 days prior to sacrifice
Procedure: Levels of IL-4, IL-2, IL-10, TGF-β and IFNγ in supernatants were determined by capture ELISA as described. Friedman, A., et al., Proc. Nat'l Acad. Sci. U.S.A., 91, 6688 (1994); Yang, X., et al., J. Immunol., 150, 4354 (1993). Briefly, supernatants were added to microtiter (Maxisorp) plates, previously coated with rat anti-mouse IL-4, IL-2, IL-10, TGF-β or IFN-γ monoclonal antibodies (capture antibodies, Pharmingen; 1 µg/ml at 4°C over night) and blocked with BSA-diluent/blocking solution (KPL). Plates were washed, and standards and samples were added for another overnight incubation at 4°C. Bound cytokine was detected by the addition of ABTS (Kirkegaard & Perry). Wells were washed, and cytokine levels determined using biotinylated rat anti-mouse IL-4, IL-2, IL-10, TGF-β or IFN-γ monoclonal antibodies (detecting antibodies, Pharmingen) and a peroxide visualization system (peroxidase-labeled streptavidin). IL-2 and IL-4 were analyzed after 24 hours of cell incubation with antigen, IL-10 and IFN-γ after 40 hours and TGF-β after 72 hours. Cytokine levels were calculated from a log-log plot of absorbance vs. concentration of recombinant cytokines (Pharmingen), and results are expressed in pg/mL (for IL-4, IL-2, IL-10, TGF-β and IFN-γ). Threshold sensitivities of ELISA assays were 5 pg/mL, 10 pg/mL and 2.5 ng/mL for IL-4, IL-2 and IFN-γ, respectively.
Two mice from each of groups 1, 5, and 8 were immunized with β-amyloid peptide 10 days prior to sacrifice.

PLN [9] = settings: mice of certain strains (e.g., C3H/EB and DBA/1) mucosally tolerized
[10] = tested on: subjects with early-stage dementia; settings: 44 subjects with early-stage dementia; cited from earlier work
[11] = at least pursuant to nasal administration of 25 µg
[12] = fed 75 µg/feeding x 5 or nasal 25 µg/application x 3

Compound: Cl.Nc1c2c(nc3ccccc13)CCCC2.O [TACRINE, 1,2,3,4-tetrahydro-9-acridinamine monohydrochloride monohydrate]
- efficacy for treating Alzheimer's disease ([1]; community-dwelling subjects with mild or moderate dementia): only partially effective
- serum aminotransferase levels ([1]; safety concern, may indicate hepatocellular injury): elevation

Compound: [1-40]β-amyloid peptide: β-amyloid peptide fragment [1-40], sequence derived from β-amyloid precursor protein; antigen given orally or nasally
- proliferation of spleen cells (spleen T-cells): significant suppression of proliferation
- proliferation in popliteal lymph nodes [2]: suppression of proliferation
- proliferative response to the peptide after immunization [3]: many strains of normal mice (not transgenic mice, not Alzheimer's model) respond
- secretion of IL-2 in spleen cells ([4]; at 5 µg fed and 50 µg nasal, Fig. 5B): Suppression of IL-2 secretion was clear
- secretion of IL-10 ([4]; fed 5, 50 or 500 µg/feeding for 5 days or nasal 5 or 50 µg/application for 3 days, Figures 4A, 4B): significant enhancement of IL-10 in at least one of spleen and PLN cells treated with at least one dose
- secretion of TGF-β in spleen cells ([4]; fed 5 and 50 µg/feeding for 5 days or nasal 50 µg/application for 3 days, Figure 6B): enhanced secretion
- secretion of IL-2 in popliteal lymph nodes ([4]; nasal administration (5 or 50 µg/application for 3 days), Fig. 5A): Suppression of IL-2 secretion was clear
- in vitro IFN-γ response to Aβ stimulation [5, 11]: reduced in vitro response
- in vitro IL-2 response to Aβ stimulation [5, 11]: reduced in vitro response
- in vitro IL-10 response to Aβ stimulation [5, 12]: increased response
- in vitro TGF-β response to Aβ stimulation [5, 12]: increased response
- difference in β-amyloid deposits versus controls (1-tailed Mann-Whitney U-test) (PDAPP mice [6]; nasally administered 25 µg): statistically significant
- development of β-amyloid deposits (PDAPP mice [6]; oral 10 or 100 µg or nasal 5 or 25 µg, weekly from 4-5 to 11-12 months of age, versus control groups): fewer β-amyloid deposits
- microglial activation in the brain (PDAPP mice [7]): decreased microglial activation
- production of inflammatory cytokines in the brain (PDAPP mice [7]): decreased production
- IgG1 class antibodies against β-amyloid in antisera (β-amyloid): increase
- production of IL-2 (PLN [8]; Figure 12): decreased production
- production of IFN-γ (PLN [8]; Figure 14): decreased production
- production of IL-6 (PLN [8]; Figure 15): decreased production
- production of IL-10 (PLN [8]; Figure 16): increased production
- production of TGF-β (PLN [8]; Figure 17): increased production
- PLN proliferation (PLN [9]): decreased PLN proliferation

Compound: COc1ccc2c(c1)c(CC(=O)O)c(C)n2C(=O)c1ccc(Cl)cc1 [indomethacin]
- mental function during the study [10]: did not deteriorate
